From patent US8796428B2, “Erk1/2 posphorylation site specific antibody” (Julius-Maximilians-Universitaet Wuerzburg, priority 2008, dated 2014) come the findings set out here.

One assay has as its system Mek. The assay is described as follows: Determination of total inositol phosphates in HEK293-cells. It is filed as cell-based. The settings on record: carbachol 50 μM, 15 min. As to the method: For determination of total inositol phosphates, the inventors transfected HEK293-cells with the indicated Erk2-constructs. After labeling of the cells with myo-[2-^3H]-inositol (1 mCi ml^−1) in inositol-free DMEM for 24 h, the inventors incubated the cells in incubation buffer (137 mM NaCl, 5 mM KCl, 10 mM LiCl, 1 mM CaCl2, 1 mM MgCl2, 10 mM HEPES, […]) for 15 min. The inventors extracted the inositol phosphates by addition of HClO4 (20%) before neutralizing the extract with KOH (1 M), removing the precipitates by centrifugation and applying the supernatants to anion exchange columns (DowexAG1×8, Biorad). The inventors then eluted total inositol phosphates by HCl (1 M) and measured the incorporated radioactivity by scintillation counting.

The test system of another assay is Mek1/2. Kind of assay: Co-immunoprecipitation of HA-Raf1 with Gβ in HEK293 cells. It is filed as cell-based. Particulars: PD98059 50 μM, CCH, 5 min. As for the experimental part:
The inventors prepared cell lysates and tissue lysates using lysis buffer (0.5% (v/v) NP-40, 150 mM NaCl, 25 mM Na4P2O7, 50 mM β-glycerol phosphate disodium salt, 2 mM EDTA, 2 mM EGTA, 25 mM Tris, pH 8.0, 10% (v/v) glycerol, 10 μg ml^−1 soybean trypsin inhibitor, 1 mM benzamidine, 1 mM PMSF, 50 mM NaF, 0.1 mM Na3VO4, 0.002% (w/v) NaN3) similarly as described (Lorenz et al., 2003). The inventors determined the interaction of Gβγ with endogenous Raf1, ERK1/2, HA-tagged Raf1 or HA-tagged Erk2 constructs by immunoprecipitation with the respective antibodies (as indicated in the figures). After immunoprecipitation, the inventors detected co-immunoprecipitated proteins in immunoblot analyses using the respective antibodies (as indicated in the figures). Before lysis, the inventors incubated adult or neonatal cardiomyocytes with or without agonist as indicated (angiotensinII, 100 nM, 5 min or 24 h; carbachol, 300 μM, 10 min or 36 h; neuregulin1-β1, 20 ng ml^−1, 10 min or 24 h; phenylephrine, 35 μM, 5 min or 48 h). […] The inventors prepared ventricular tissue from mouse hearts derived from male 129SvEv (FIG. 1g,h), FVB/N wild-type (WT) or Erk2^T188-transgenic mice (1188T, T188D, T188S, T188A) (FVB/N background) without or after transverse aortic constriction (TAC, see Fig. legends for the duration of TAC) or carbachol-infusion. Control animals were strain-, age- and gender-matched. […]

The next assay deals with Src-kinase. Kind of assay: Neuregulin-induced hypertrophic effects in neonatal cardiomyocytes with Src-kinase inhibitor. It is filed as cell-based, rat. As to the method:
(§1) The inventors assessed phosphorylation of Gαq/11 by immunoprecipitation of Gαq/11 from lysates of neonatal cardiomyocytes without or with neuregulin1-β1 treatment (20 ng ml^−1, 10 min) using Gαq/11-specific antibodies (sc-392 AC, Santa Cruz) followed by detection of phosphotyrosine and immunoprecipitated Gαq/11 by immunoblot analyses. The inventors prepared the lysates as described above.
The inventors measured protein synthesis rates in isolated cardiomyocytes by [^3H]isoleucine incorporation. The inventors seeded transfected cardiomyocytes on 24-well plates in MEM supplemented with bromodeoxyuridine (25 mg l^−1), cobalamin (2 mg l^−1), NaHCO3 (350 mg l^−1), penicillin (100 U ml^−1), streptomycin (100 μg ml^−1) and 5% (v/v) fetal calf serum. After 24 h, the inventors reduced the serum concentration to 1% for 1 day followed by fasting in serum-free medium for 24-48 h. Thereafter, the inventors labeled the cells with [^3H]isoleucine (1 μCi ml^−1) for 24-48 h in the absence or presence of 100 nM angiotensinII, 300 μM carbachol, 10 ng ml^−1 neuregulin1-β1 or 35 μM (R)-(−)-phenylephrine as indicated. The inventors measured radioactivity incorporated into the TCA (trichloroacetic acid)-precipitable material by scintillation counting.

Assay [1] deals with Gβγ interaction with Raf1 and Erk1/2. Kind of assay: Co-immunoprecipitation of Gβγ with Raf1 and Erk1/2 in neonatal rat cardiomyocytes. It is filed as cell-based. The settings on record: angiotensinII 100 nM 5 min, carbachol 300 μM 10 min, neuregulin 20 ng ml^−1 10 min. As for the experimental part:
(§2) The inventors prepared cell lysates and tissue lysates using lysis buffer (0.5% (v/v) NP-40, 150 mM NaCl, 25 mM Na4P2O7, 50 mM β-glycerol phosphate disodium salt, 2 mM EDTA, 2 mM EGTA, 25 mM Tris, pH 8.0, 10% (v/v) glycerol, 10 μg ml^−1 soybean trypsin inhibitor, 1 mM benzamidine, 1 mM PMSF, 50 mM NaF, 0.1 mM Na3VO4, 0.002% (w/v) NaN3) similarly as described (Lorenz et al., 2003). The inventors determined the interaction of Gβγ with endogenous Raf1, ERK1/2, HA-tagged Raf1 or HA-tagged Erk2 constructs by immunoprecipitation with the respective antibodies (as indicated in the figures). After immunoprecipitation, the inventors detected co-immunoprecipitated proteins in immunoblot analyses using the respective antibodies (as indicated in the figures). Before lysis, the inventors incubated adult or neonatal cardiomyocytes with or without agonist as indicated (angiotensinII, 100 nM, 5 min or 24 h; carbachol, 300 μM, 10 min or 36 h; neuregulin1-β1, 20 ng ml^−1, 10 min or 24 h; phenylephrine, 35 μM, 5 min or 48 h). HEK293-cells were cultured in the absence or presence of carbachol (100 μM, 6 min) or UK14304 (1 μM, 10 min) before lysis. […]

The next assay relates to Gαq/11. The assay is described as follows: Detection of tyrosine phosphorylated Gαq/11 in neonatal cardiomyocytes. It is filed as cell-based, rat. Particulars: 20 ng ml^−1, 10 min. As for the experimental part: as §1
For a further assay, the system named is Erk1/2. Kind of assay: Immunoblot of Thr188-phosphorylation of Erk1/2 in cardiomyocytes. It is filed as cell-based. Particulars: 20 ng ml^−1. As for the experimental part:
as §2, with “[…];” for “neuregulin1-β1, 20 ng ml^−1, 10 min or 24 h;”
Background: In western blotting, separated proteins are transferred to a membrane and probed.

For the compound `COc1cccc(-c2cc(=O)c3ccccc3o2)c1N` [PD98059], the “carbachol-stimulated inositol phosphate signaling compared to control cells” value in the assay on Mek is “enhanced”. Also, in the assay on Mek1/2, the “carbachol-stimulated interaction of HA-Raf1 with Gβ” value is “suppressed”. For `CC(C)(C)n1nc(-c2ccc(Cl)cc2)c2c(N)ncnc21` [PP2], in the assay with Src-kinase, the “effect on neuregulin-induced effects (Gβγ co-immunoprecipitation, Gαq/11 phosphorylation, protein synthesis)” value is “blocked”. Turning to “angiotensinII (DRVYIHPF; Angiotensin-2; UniProt P01019 25-32, looked up) [triggers hypertrophy via Gq-coupled AT1-receptors]”, the “co-immunoprecipitation of Gβγ with both Raf1 and Erk1/2” value in assay [1] is on record as “markedly enhanced”. In the case of neuregulin1-β1, in the assay on Gαq/11, the “phosphorylation of Gαq/11 at Tyr356” value was “triggered”. Moreover, the “Thr188-phosphorylation of Erk1/2” value with Erk1/2 is “induced”. Moreover, the “co-immunoprecipitation of Gβγ with both Raf1 and Erk1/2” value in assay [1] is listed as “permitted”.
